What follows are compounds tested against Phosphoglycerate kinase (Trypanosoma brucei) (assay: evaluated for the inhibition of Trypanosoma brucei Phosphoglycerate kinase (PGK)).

IC50	Structure (SMILES)
0.5 mM	Nc1nc(NCCNc2nc(N)nc3c2ncn3C2O[C@H](CO)[C@@H](O)[C@H]2O)c2ncn(C3O[C@@H](CO)[C@H](O)[C@@H]3O)c2n1 (stereo partly specified)
1.4 mM	Nc1nc(NCC(O)c2ccccc2)nc2c1ncn2[C@@H]1O[C@H](CO)[C@@H](O)[C@H]1O (stereo partly specified)
3 mM	CCCCCNc1ncnc2c1ncn2[C@@H]1O[C@H](CO)[C@@H](O)[C@H]1O
3 mM	C=CCNc1nc(N)nc2c1ncn2C1O[C@H](CO)[C@@H](O)[C@H]1O (stereo partly specified)
0.75 mM	Nc1nc(NCCCCNc2nc(N)nc3c2ncn3C2O[C@H](CO)[C@@H](O)[C@H]2O)c2ncn(C3O[C@@H](CO)[C@H](O)[C@@H]3O)c2n1 (stereo partly specified)
1.5 mM	CCCCNc1nc(N)c2ncn(C3O[C@H](CO)[C@@H](O)[C@H]3O)c2n1 (stereo partly specified)
4 mM	Nc1nc(NCCCc2ccccc2)c2ncn(C3O[C@H](CO)[C@@H](O)[C@H]3O)c2n1 (stereo partly specified)
0.1 mM	OC[C@H]1OC(n2cnc3c(NCCc4ccc(O)cc4)nc(NCCc4ccccc4)nc32)[C@H](O)[C@@H]1O (stereo partly specified)
1.5 mM	Cc1cccc(CNc2nc(N)c3ncn(C4O[C@H](CO)[C@@H](O)[C@H]4O)c3n2)c1 (stereo partly specified)
1.5 mM	C#CCNc1nc(N)nc2c1ncn2C1O[C@H](CO)[C@@H](O)[C@H]1O (stereo partly specified)
2 mM	Cc1ccc(CCNc2nc(N)nc3c2ncn3C2O[C@H](CO)[C@@H](O)[C@H]2O)cc1 (stereo partly specified)
0.8 mM	Nc1nc(NCC2CCCO2)nc2c1ncn2C1O[C@H](CO)[C@@H](O)[C@H]1O (stereo partly specified)
2.9 mM	CC(Nc1nc(N)nc2c1ncn2C1O[C@H](CO)[C@@H](O)[C@H]1O)c1ccccc1 (stereo partly specified)
0.1 mM	OC[C@H]1OC(n2cnc3c(NCCc4ccccc4)nc(NCCc4ccc(O)cc4)nc32)[C@H](O)[C@@H]1O (stereo partly specified)
0.25 mM	Nc1nc(NCCc2ccc(O)c(O)c2)c2ncn(C3O[C@H](CO)[C@@H](O)[C@H]3O)c2n1 (stereo partly specified)
1.4 mM	Nc1nc(NCc2ccc(Cl)cc2)nc2c1ncn2C1O[C@H](CO)[C@@H](O)[C@H]1O (stereo partly specified)
3 mM	CCCNc1nc(N)nc2c1ncn2C1O[C@H](CO)[C@@H](O)[C@H]1O (stereo partly specified)
2 mM	CCCCCNc1nc(N)nc2c1ncn2C1O[C@H](CO)[C@@H](O)[C@H]1O (stereo partly specified)
0.03 mM	OC[C@H]1OC(n2cnc3c(NCCc4ccccc4)nc(NCCc4ccccc4)nc32)[C@H](O)[C@@H]1O (stereo partly specified)
0.25 mM	Nc1ccc(CCNc2nc(N)nc3c2ncn3C2O[C@H](CO)[C@@H](O)[C@H]2O)cc1 (stereo partly specified)
0.4 mM	Cc1cccc(CNc2nc(N)nc3c2ncn3C2O[C@H](CO)[C@@H](O)[C@H]2O)c1 (stereo partly specified)

IC50	Structure (SMILES)
0.13 mM	Nc1nc(NCCc2ccc(O)cc2)c2ncn(C3O[C@H](CO)[C@@H](O)[C@H]3O)c2n1 (stereo partly specified)
1.4 mM	COc1ccccc1CNc1nc(N)c2ncn(C3O[C@H](CO)[C@@H](O)[C@H]3O)c2n1 (stereo partly specified)
1.9 mM	Nc1nc(NCc2cccc3ccccc23)c2ncn(C3O[C@H](CO)[C@@H](O)[C@H]3O)c2n1 (stereo partly specified)
0.25 mM	Nc1nc(NCCc2cccc(O)c2)c2ncn(C3O[C@H](CO)[C@@H](O)[C@H]3O)c2n1 (stereo partly specified)
0.6 mM	Nc1nc(NCCc2ccc(Cl)cc2Cl)nc2c1ncn2C1O[C@H](CO)[C@@H](O)[C@H]1O (stereo partly specified)
1.9 mM	Nc1nc(NCCc2ccccc2Cl)c2ncn(C3O[C@H](CO)[C@@H](O)[C@H]3O)c2n1 (stereo partly specified)
1 mM	COc1ccc(CNc2nc(N)c3ncn(C4O[C@H](CO)[C@@H](O)[C@H]4O)c3n2)cc1 (stereo partly specified)
2.5 mM	Nc1nc(NCC2CCCCC2)c2ncn(C3O[C@H](CO)[C@@H](O)[C@H]3O)c2n1 (stereo partly specified)
1.8 mM	Nc1nc(NCCCc2ccccc2)nc2c1ncn2C1O[C@H](CO)[C@@H](O)[C@H]1O (stereo partly specified)
1 mM	Nc1nc(NCCCCCNc2nc(N)nc3c2ncn3C2O[C@H](CO)[C@@H](O)[C@H]2O)c2ncn(C3O[C@@H](CO)[C@H](O)[C@@H]3O)c2n1 (stereo partly specified)
3.5 mM	Nc1nc(NCc2ccccc2)nc2c1ncn2C1O[C@H](CO)[C@@H](O)[C@H]1O (stereo partly specified)
4 mM	NCCCNc1nc(N)nc2c1ncn2C1O[C@H](CO)[C@@H](O)[C@H]1O (stereo partly specified)
1.5 mM	Nc1nc(NC2CCCC2)c2ncn(C3O[C@H](CO)[C@@H](O)[C@H]3O)c2n1 (stereo partly specified)
2 mM	Nc1nc(NCc2ccccc2Cl)nc2c1ncn2C1O[C@H](CO)[C@@H](O)[C@H]1O (stereo partly specified)
2.2 mM	Nc1nc(NCCc2ccccc2Cl)nc2c1ncn2C1O[C@H](CO)[C@@H](O)[C@H]1O (stereo partly specified)
0.05 mM	Nc1nc(NCCCNc2nc(N)nc3c2ncn3C2O[C@H](CO)[C@@H](O)[C@H]2O)c2ncn(C3O[C@@H](CO)[C@H](O)[C@@H]3O)c2n1 (stereo partly specified)
2.5 mM	Nc1nc(NC2CCCCCC2)c2ncn(C3O[C@H](CO)[C@@H](O)[C@H]3O)c2n1 (stereo partly specified)
2.9 mM	CC(CNc1nc(N)nc2c1ncn2C1O[C@H](CO)[C@@H](O)[C@H]1O)c1ccccc1 (stereo partly specified)
3.5 mM	CC(CNc1nc(N)c2ncn(C3O[C@H](CO)[C@@H](O)[C@H]3O)c2n1)c1ccccc1 (stereo partly specified)
3 mM	Nc1nc(NC2CCCCCC2)nc2c1ncn2C1O[C@H](CO)[C@@H](O)[C@H]1O (stereo partly specified)
0.6 mM	Nc1nc(NCc2ccccc2)c2ncn(C3O[C@H](CO)[C@@H](O)[C@H]3O)c2n1 (stereo partly specified)

IC50	Structure (SMILES)
1.2 mM	Nc1nc(NCCc2cccc(Cl)c2)c2ncn(C3O[C@H](CO)[C@@H](O)[C@H]3O)c2n1 (stereo partly specified)
1.9 mM	COc1cccc(CCNc2nc(N)nc3c2ncn3C2O[C@H](CO)[C@@H](O)[C@H]2O)c1 (stereo partly specified)
1.5 mM	CCCNc1nc(N)c2ncn([C@@H]3O[C@H](CO)[C@@H](O)[C@H]3O)c2n1
0.2 mM	Nc1nc(NCCc2ccccc2)c2ncn(C3O[C@H](CO)[C@@H](O)[C@H]3O)c2n1 (stereo partly specified)
1.5 mM	COc1cc(CCNc2nc(N)nc3c2ncn3C2O[C@H](CO)[C@@H](O)[C@H]2O)ccc1O (stereo partly specified)
0.85 mM	COc1ccc(CCNc2nc(N)nc3c2ncn3C2O[C@H](CO)[C@@H](O)[C@H]2O)cc1O (stereo partly specified)
1.2 mM	Nc1nc(NCc2ccco2)nc2c1ncn2C1O[C@H](CO)[C@@H](O)[C@H]1O (stereo partly specified)
0.5 mM	Nc1nc(NCCc2ccc(O)cc2)nc2c1ncn2C1O[C@H](CO)[C@@H](O)[C@H]1O (stereo partly specified)
1.5 mM	Cc1ccccc1CNc1nc(N)c2ncn(C3O[C@H](CO)[C@@H](O)[C@H]3O)c2n1 (stereo partly specified)
1.8 mM	COc1ccccc1CCNc1nc(N)nc2c1ncn2C1O[C@H](CO)[C@@H](O)[C@H]1O (stereo partly specified)
0.8 mM	Nc1nc(NCc2cccc(Cl)c2)nc2c1ncn2C1O[C@H](CO)[C@@H](O)[C@H]1O (stereo partly specified)
1.5 mM	Nc1nc(NCc2ccco2)c2ncn(C3O[C@H](CO)[C@@H](O)[C@H]3O)c2n1 (stereo partly specified)
1.4 mM	Nc1nc(NCCc2ccc(Cl)cc2)c2ncn(C3O[C@H](CO)[C@@H](O)[C@H]3O)c2n1 (stereo partly specified)
1.5 mM	Cc1ccc(CNc2nc(N)c3ncn(C4O[C@H](CO)[C@@H](O)[C@H]4O)c3n2)cc1 (stereo partly specified)
0.9 mM	CCCCNc1nc(N)nc2c1ncn2C1O[C@H](CO)[C@@H](O)[C@H]1O (stereo partly specified)
1.5 mM	COc1ccc(CCNc2nc(N)nc3c2ncn3C2O[C@H](CO)[C@@H](O)[C@H]2O)cc1 (stereo partly specified)
0.5 mM	Nc1ccc(CCNc2nc(N)c3ncn(C4O[C@H](CO)[C@@H](O)[C@H]4O)c3n2)cc1 (stereo partly specified)
3.5 mM	CCNc1nc(N)nc2c1ncn2C1O[C@H](CO)[C@@H](O)[C@H]1O (stereo partly specified)
2.5 mM	NCCNc1ncnc2c1ncn2C1O[C@H](CO)[C@@H](O)[C@H]1O (stereo partly specified)

— ChEMBL document CHEMBL1133593 (J Med Chem, 2000)
